Laboratory results taken from patent US20240384350A1, “METHODS OF TREATING CANCER WITH KINASE INHIBITORS” (BOARD OF REGENTS, THE UNIVERSITY OF TEXAS SYSTEM, priority 2021, published 2024).

Columns and labels:
Assay in all cases: Ba/F3 drug screening, Cell Titer Glo, IC50 Mut/WT
Assay type in all cases: cell-based
EGFR N771dupN G724S = target: T1, EGFR N771dupN G724S (Homo sapiens, UniProt P00533, DUP771-771/G724S); details: Ex20, 72 hours
T1 construct: expressed in transfected cells; host or cells: Ba/F3 cells, retroviral pBabe-Puro vector (vector made by GeneScript from EGFR G724S, c.2313_2314insAAC)

EGFR Ex19del T790M = target: T2, EGFR Ex19del T790M (Homo sapiens, UniProt P00533, DEL746-750/T790M); details: T790M-like-3S, 72 hours
T2 construct: expressed in transfected cells; host or cells: Ba/F3
Method: Data represent the ratio of the IC50 value for a given TKI for cells with a T790M-like-3S EGFR mutation to the IC50 value for cells with wildtype EGFR.
(§1) Ba/F3 cell generation, drug screening, and IC50 approximations. Ba/F3 cells were obtained as a gift from Dr. Gordon Mills (MD Anderson Cancer Center), and maintained in RPMI (Sigma) containing 10% FBS, 1% penicillin/streptomycin, and 10 ng/ml recombinant mIL-3 (R&D Biosystems). To establish stable Ba/F3 cell lines, Ba/F3 cells were transduced with retroviruses containing mutant EGFR plasmids for 12-24 hours.
(§2) After 48-72 hours of transduction, 2 μg/ml puromycin (Invitrogen) was added to Ba/F3 cell lines in complete RPMI. To select for EGFR positive cell lines, cells were stained with PE-EGFR (Biolegend) and sorted by FACS. After sorting, EGFR positive cells were maintained in RPMI containing 10% FBS, 1% penicillin/streptomycin, and 1 ng/ml EGF to support cell viability. Drug screening was performed as previously described^41,42. Shortly, cells were plated in 384-well plates (Greiner Bio-One) at 2000-3000 cells per well in technical triplicate. Seven different concentrations of TKIs or DMSO vehicle were added to reach a final volume of 40 μL per well. After 72 hours, 11 μL of Cell Titer Glo (Promega) was added to each well. Plates were incubated for a minimum of 10 minutes, and bioluminescence was determined using a FLUOstar OPTIMA plate reader (BMG LABTECH). Raw bioluminescence values were normalized to DMSO control treated cells, and values were plotted in GraphPad Prism. […] Drug screens were performed in technical triplicate on each plate and either duplicate or triplicate biological replicates.

EGFR G719A/R776C = target: T3, EGFR G719A/R776C (Homo sapiens, UniProt P00533, G719A/R776C)
T3 construct: expressed in transfected cells; host or cells: Ba/F3

EGFR G719S = target: T4, EGFR G719S (Homo sapiens, UniProt P00533, G719S)
T4 construct: expressed in transfected cells; host or cells: Ba/F3

EGFR L833V = target: T5, EGFR L833V (Homo sapiens, UniProt P00533, L833V); details: Classical-Like, 72 hours
T5 construct: expressed in transfected cells; host or cells: Ba/F3 cells, retroviral pBabe-Puro vector

EGFR S784F = target: T6, EGFR S784F (Homo sapiens, UniProt P00533, S784F); details: Classical-Like, 72 hours
T6 construct: expressed in transfected cells; host or cells: Ba/F3 cells, retroviral pBabe-Puro vector (vector made by GeneScript from EGFR WT)

EGFR R776H = target: T7, EGFR R776H (Homo sapiens, UniProt P00533, R776H)
T7 construct: host or cells: Ba/F3
Method: (§3) Data represent the ratio of the IC50 value for a given TKI for cells with a PACC EGFR mutation to the IC50 value for cells with wildtype EGFR.
as §1, §2

EGFR E709K = target: T8, EGFR E709K (Homo sapiens, UniProt P00533, E709K)
T8 construct: expressed in transfected cells; host or cells: Ba/F3
Method: as §3, §1, §2

EGFR Ex19del/L792H = target: T9, EGFR Ex19del/L792H (Homo sapiens, UniProt P00533, DEL746-750/L792H)
T9 construct: expressed in transfected cells; host or cells: Ba/F3

EGFR L858R/T790M/L718Q = target: T10, EGFR L858R/T790M/L718Q (Homo sapiens, UniProt P00533, L718Q/L858R/T790M); details: T790M-like-3R, 72 hours
T10 construct: expressed in transfected cells; host or cells: Ba/F3
Method: (§4) Data represent the ratio of the IC50 value for a given TKI for cells with a T790M-like-3R EGFR mutation to the IC50 value for cells with wildtype EGFR.
as §1
(§5) After 48-72 hours of transduction, 2 μg/ml puromycin (Invitrogen) was added to Ba/F3 cell lines in complete RPMI. To select for EGFR positive cell lines, cells were stained with PE-EGFR (Biolegend) and sorted by FACS. After sorting, EGFR positive cells were maintained in RPMI containing 10% FBS, 1% penicillin/streptomycin, and 1 ng/ml EGF to support cell viability. […] Shortly, cells were plated in 384-well plates (Greiner Bio-One) at 2000-3000 cells per well in technical triplicate. Seven different concentrations of TKIs or DMSO vehicle were added to reach a final volume of 40 μL per well. After 72 hours, 11 μL of Cell Titer Glo (Promega) was added to each well. Plates were incubated for a minimum of 10 minutes, and bioluminescence was determined using a FLUOstar OPTIMA plate reader (BMG LABTECH). Raw bioluminescence values were normalized to DMSO control treated cells, and values were plotted in GraphPad Prism. […] Drug screens were performed in technical triplicate on each plate and either duplicate or triplicate biological replicates. […] Statistical differences between groups were determined by ANOVA as described in the figure legends.

EGFR S720P = target: T11, EGFR S720P (Homo sapiens, UniProt P00533, S720P); details: Classical-Like, 72 hours
T11 construct: expressed in transfected cells; host or cells: Ba/F3 cells, retroviral pBabe-Puro vector (vector made by GeneScript from EGFR WT)

EGFR E709A G719S = target: T12, EGFR E709A G719S (Homo sapiens, UniProt P00533, E709A/G719S)
T12 construct: expressed in transfected cells; host or cells: Ba/F3

EGFR G719S T790M = target: T13, EGFR G719S T790M (Homo sapiens, UniProt P00533, G719S/T790M); details: T790M-like-3S, 72 hours
T13 construct: expressed in transfected cells; host or cells: Ba/F3

EGFR L858R/C797S = target: T14, EGFR L858R/C797S (Homo sapiens, UniProt P00533, C797S/L858R)
T14 construct: expressed in transfected cells; host or cells: Ba/F3

EGFR L858R/L718V = target: T15, EGFR L858R/L718V (Homo sapiens, UniProt P00533, L718V/L858R)
T15 construct: host or cells: Ba/F3

EGFR S768I/V769L = target: T16, EGFR S768I/V769L (Homo sapiens, UniProt P00533, S768I/V769L)
T16 construct: host or cells: Ba/F3

[1] = target: T17, EGFR L747_K754del insATSPE (Homo sapiens, UniProt P00533, DEL747-749/K754E); details: T790M-like-3S, 72 hours
T17 construct: expressed in transfected cells; host or cells: Ba/F3 cells, retroviral pBabe-Puro vector

EGFR T790M = target: T18, EGFR T790M (Homo sapiens, UniProt P00533, T790M); details: T790M-like-3S, 72 hours
T18 construct: expressed in transfected cells; host or cells: Ba/F3

EGFR L858R T790M V843I = target: T19, EGFR L858R T790M V843I (Homo sapiens, UniProt P00533, L858R/T790M/V843I); details: T790M-like-3S, 72 hours
T19 construct: expressed in transfected cells; host or cells: Ba/F3

EGFR E709A = target: T20, EGFR E709A (Homo sapiens, UniProt P00533, E709A)
T20 construct: expressed in transfected cells; host or cells: Ba/F3
Method: as §3, §1, §2

EGFR S768dupSVD = target: T21, EGFR S768dupSVD (Homo sapiens, UniProt P00533, DUP768-770); details: Ex20, 72 hours
T21 construct: expressed in transfected cells; host or cells: Ba/F3 cells, retroviral pBabe-Puro vector
Method: Data represent the ratio of the IC50 value for a given TKI for cells with an ex20ins EGFR mutation to the IC50 value for cells with wildtype EGFR.
as §1
After 48-72 hours of transduction, 2 μg/ml puromycin (Invitrogen) was added to Ba/F3 cell lines in complete RPMI. To select for EGFR positive cell lines, cells were stained with PE-EGFR (Biolegend) and sorted by FACS. After sorting, EGFR positive cells were maintained in RPMI containing 10% FBS, 1% penicillin/streptomycin, and 1 ng/ml EGF to support cell viability. Drug screening was performed as previously described^41,42. Shortly, cells were plated in 384-well plates (Greiner Bio-One) at 2000-3000 cells per well in technical triplicate. Seven different concentrations of TKIs or DMSO vehicle were added to reach a final volume of 40 μL per well. After 72 hours, 11 μL of Cell Titer Glo (Promega) was added to each well. Plates were incubated for a minimum of 10 minutes, and bioluminescence was determined using a FLUOstar OPTIMA plate reader (BMG LABTECH). Raw bioluminescence values were normalized to DMSO control treated cells, and values were plotted in GraphPad Prism. […] Drug screens were performed in technical triplicate on each plate and either duplicate or triplicate biological replicates. […] Statistical differences between groups were determined by ANOVA as described in the figure legends.

EGFR T725M = target: T22, EGFR T725M (Homo sapiens, UniProt P00533, T725M); details: Classical-Like, 72 hours
T22 construct: expressed in transfected cells; host or cells: Ba/F3 cells, retroviral pBabe-Puro vector (vector made by GeneScript from EGFR WT)

EGFR Ex19del/T790M/L792H = target: T23, EGFR Ex19del/T790M/L792H (Homo sapiens, UniProt P00533, DEL746-750/L792H/T790M); details: T790M-like-3R, 72 hours
T23 construct: expressed in transfected cells; host or cells: Ba/F3
Method: as §4, §1, §5

EGFR Ex19del = target: T24, EGFR Ex19del (Homo sapiens, UniProt P00533, DEL746-750); details: Classical-Like, 72 hours
T24 construct: expressed in transfected cells; host or cells: Ba/F3 cells, retroviral pBabe-Puro vector
Method: Data represent the ratio of the IC50 value for a given TKI for cells with a classical-like EGFR mutation to the IC50 value for cells with wildtype EGFR.
as §1
After 48-72 hours of transduction, 2 μg/ml puromycin (Invitrogen) was added to Ba/F3 cell lines in complete RPMI. To select for EGFR positive cell lines, cells were stained with PE-EGFR (Biolegend) and sorted by FACS. After sorting, EGFR positive cells were maintained in RPMI containing 10% FBS, 1% penicillin/streptomycin, and 1 ng/ml EGF to support cell viability. […] Shortly, cells were plated in 384-well plates (Greiner Bio-One) at 2000-3000 cells per well in technical triplicate. Seven different concentrations of TKIs or DMSO vehicle were added to reach a final volume of 40 μL per well. After 72 hours, 11 μL of Cell Titer Glo (Promega) was added to each well. Plates were incubated for a minimum of 10 minutes, and bioluminescence was determined using a FLUOstar OPTIMA plate reader (BMG LABTECH). Raw bioluminescence values were normalized to DMSO control treated cells, and values were plotted in GraphPad Prism. […] Drug screens were performed in technical triplicate on each plate and either duplicate or triplicate biological replicates.

EGFR L718Q T790M = target: T25, EGFR L718Q T790M (Homo sapiens, UniProt P00533, L718Q/T790M); details: T790M-like-3R, 72 hours
T25 construct: expressed in transfected cells; host or cells: Ba/F3
Method: as §4, §1, §5

EGFR G719A L861Q = target: T26, EGFR G719A L861Q (Homo sapiens, UniProt P00533, G719A/L861Q)
T26 construct: expressed in transfected cells; host or cells: Ba/F3

EGFR H773insNPH = target: T27, EGFR H773insNPH (Homo sapiens, UniProt P00533, INS773NPH); details: Ex20, 72 hours
T27 construct: expressed in transfected cells; host or cells: Ba/F3 cells, retroviral pBabe-Puro vector

Compound	ratio of IC50 for cells with mutant EGFR to IC50 for cells with wildtype EGFR (Mut/WT) (EGFR N771dupN G724S)	ratio of IC50 for cells with mutant EGFR to IC50 for cells with wildtype EGFR (Mut/WT) (EGFR Ex19del T790M)	ratio of IC50 for cells with mutant EGFR to IC50 for cells with wildtype EGFR (Mut/WT) (EGFR L833V)	ratio of IC50 for cells with mutant EGFR to IC50 for cells with wildtype EGFR (Mut/WT) (EGFR S784F)	ratio of IC50 for cells with mutant EGFR to IC50 for cells with wildtype EGFR (Mut/WT) (EGFR L858R/T790M/L718Q)	ratio of IC50 for cells with mutant EGFR to IC50 for cells with wildtype EGFR (Mut/WT) (EGFR S720P)	ratio of IC50 for cells with mutant EGFR to IC50 for cells with wildtype EGFR (Mut/WT) (EGFR G719S T790M)	ratio of IC50 for cells with mutant EGFR to IC50 for cells with wildtype EGFR (Mut/WT) [1]	ratio of IC50 for cells with mutant EGFR to IC50 for cells with wildtype EGFR (Mut/WT) (EGFR T790M)	ratio of IC50 for cells with mutant EGFR to IC50 for cells with wildtype EGFR (Mut/WT) (EGFR L858R T790M V843I)	ratio of IC50 for cells with mutant EGFR to IC50 for cells with wildtype EGFR (Mut/WT) (EGFR S768dupSVD)	ratio of IC50 for cells with mutant EGFR to IC50 for cells with wildtype EGFR (Mut/WT) (EGFR T725M)	ratio of IC50 for cells with mutant EGFR to IC50 for cells with wildtype EGFR (Mut/WT) (EGFR Ex19del/T790M/L792H)	ratio of IC50 for cells with mutant EGFR to IC50 for cells with wildtype EGFR (Mut/WT) (EGFR Ex19del)	ratio of IC50 for cells with mutant EGFR to IC50 for cells with wildtype EGFR (Mut/WT) (EGFR L718Q T790M)	ratio of IC50 for cells with mutant EGFR to IC50 for cells with wildtype EGFR (Mut/WT) (EGFR H773insNPH)	other results
C=CC(=O)Nc1cccc(Oc2nc(Nc3ccc(N4CCN(C)CC4)cc3)nc3ccsc23)c1 [Olmutinib]	0.4165	0.0004059	0.03803	0.14	0.6196	0.003331	0.02453	0.0001357	0.04611	0.000771	0.5533	0.03664	2.218	0.0008432	0.3579	0.4274	ratio of the IC50 value for cells with a PACC EGFR mutation to the IC50 value for cells with wildtype EGFR (EGFR G719A/R776C; Ba/F3 cells, EGFR G719A/R776C (PACC), Mut/WT): 0.1805; ratio of the IC50 value for cells with a PACC EGFR mutation to the IC50 value for cells with wildtype EGFR (EGFR G719S; Ba/F3 cells, EGFR G719S (PACC), Mut/WT): 0.214; ratio of the IC50 value for cells with a PACC EGFR mutation to the IC50 value for cells with wildtype EGFR (EGFR R776H; Ba/F3 cells, EGFR R776H (PACC), Mut/WT): 0.1146; ratio of the IC50 value for cells with a PACC EGFR mutation to the IC50 value for cells with wildtype EGFR (EGFR E709K; Ba/F3 cells, EGFR E709K (PACC), Mut/WT): 0.05562; ratio of the IC50 value for cells with a PACC EGFR mutation to the IC50 value for cells with wildtype EGFR (EGFR Ex19del/L792H; Ba/F3 cells, EGFR Ex19del/L792H (PACC), Mut/WT): 0.01923; ratio of the IC50 value for cells with a PACC EGFR mutation to the IC50 value for cells with wildtype EGFR (EGFR E709A G719S; Ba/F3 cells, EGFR E709A G719S (PACC), Mut/WT): 0.1443; ratio of the IC50 value for cells with a PACC EGFR mutation to the IC50 value for cells with wildtype EGFR (EGFR L858R/C797S; Ba/F3 cells, EGFR L858R/C797S (PACC), Mut/WT): 2.242; ratio of the IC50 value for cells with a PACC EGFR mutation to the IC50 value for cells with wildtype EGFR (EGFR L858R/L718V; Ba/F3 cells, EGFR L858R/L718V (PACC), Mut/WT): 0.8629; ratio of the IC50 value for cells with a PACC EGFR mutation to the IC50 value for cells with wildtype EGFR (EGFR S768I/V769L; Ba/F3 cells, EGFR S768I/V769L (PACC), Mut/WT): 0.3582; ratio of the IC50 value for cells with a PACC EGFR mutation to the IC50 value for cells with wildtype EGFR (EGFR E709A; Ba/F3 cells, EGFR E709A (PACC), Mut/WT): 0.01516; ratio of the IC50 value for cells with a PACC EGFR mutation to the IC50 value for cells with wildtype EGFR (EGFR G719A L861Q; Ba/F3 cells, EGFR G719A L861Q (PACC), Mut/WT): 0.07388
COc1cc2ncnc(Nc3ccc(F)c(Cl)c3)c2cc1NC(=O)/C=C/CN1CCCCC1 [Dacomitinib]	3.161	4.871	0.06272	0.08997	45.78	0.03879	3.776	5.465	6.061	20.06	0.882	0.03062	48.51	0.005832	4.784	1.645	ratio of IC50 for cells with mutant EGFR to IC50 for cells with wildtype EGFR (Mut/WT) (EGFR G719A/R776C; PACC, G719A/R776C, Ba/F3, 72 hours): 0.002518; ratio of IC50 for cells with mutant EGFR to IC50 for cells with wildtype EGFR (Mut/WT) (EGFR G719S; PACC, G719S, Ba/F3, 72 hours): 0.002178; ratio of IC50 for cells with mutant EGFR to IC50 for cells with wildtype EGFR (Mut/WT) (EGFR R776H; PACC, R776H, Ba/F3, 72 hours): 0.001367; ratio of IC50 for cells with mutant EGFR to IC50 for cells with wildtype EGFR (Mut/WT) (EGFR E709K; PACC, E709K, Ba/F3, 72 hours): 0.2711; ratio of IC50 for cells with mutant EGFR to IC50 for cells with wildtype EGFR (Mut/WT) (EGFR Ex19del/L792H; PACC, Ex19del/L792H, Ba/F3, 72 hours): 0.2436; ratio of IC50 for cells with mutant EGFR to IC50 for cells with wildtype EGFR (Mut/WT) (EGFR E709A G719S; PACC, E709A G719S, Ba/F3, 72 hours): 0.001614; ratio of IC50 for cells with mutant EGFR to IC50 for cells with wildtype EGFR (Mut/WT) (EGFR L858R/C797S; PACC, L858R/C797S, Ba/F3, 72 hours): 0.04539; ratio of IC50 for cells with mutant EGFR to IC50 for cells with wildtype EGFR (Mut/WT) (EGFR L858R/L718V; PACC, L858R/L718V, Ba/F3, 72 hours): 0.001529; ratio of IC50 for cells with mutant EGFR to IC50 for cells with wildtype EGFR (Mut/WT) (EGFR S768I/V769L; PACC, S768I/V769L, Ba/F3, 72 hours): 0.2085; ratio of IC50 for cells with mutant EGFR to IC50 for cells with wildtype EGFR (Mut/WT) (EGFR E709A; PACC, E709A, Ba/F3, 72 hours): 0.04024; ratio of IC50 for cells with mutant EGFR to IC50 for cells with wildtype EGFR (Mut/WT) (EGFR G719A L861Q; PACC, G719A L861Q, Ba/F3, 72 hours): 0.002249
